Source: ChEMBL document CHEMBL5055653, “Synthesis, microbiological evaluation and structure activity relationship analysis of linezolid analogues with different C5-acylamino substituents” (2021)
Values after ≈ are worked out from the molar mass of the structure shown. Active and inactive are the calls of the source. The calls are words filed in the database; no cut-off is given here.

How the values were obtained:
Staphylococcus aureus [1] = assay: Antibacterial activity against Staphylococcus aureus ATCC 9144 assessed as reduction in bacterial growth incubated for 20 hrs by microplate reader method; type: functional
Staphylococcus aureus [2] = assay: Antibacterial activity against Staphylococcus aureus USA 300 assessed as reduction in bacterial growth incubated for 20 hrs by microplate reader method; type: functional
Enterococcus faecalis [3] = assay: Antibacterial activity against Vanomycin-resistant Enterococcus faecalis NCTC 12201 assessed as reduction in bacterial growth incubated for 20 hrs by microplate reader method; type: functional
Enterococcus faecium = assay: Antibacterial activity against Vanomycin-resistant Enterococcus faecium NCTC 12204 assessed as reduction in bacterial growth incubated for 20 hrs by microplate reader method; type: functional
Staphylococcus aureus [4] = assay: Antibacterial activity against Staphylococcus aureus 1199B assessed as reduction in bacterial growth incubated for 20 hrs by microplate reader method; type: functional
Enterococcus faecalis [5] = assay: Antibacterial activity against Vanomycin-sensitive Enterococcus faecalis NCTC 775 assessed as reduction in bacterial growth incubated for 20 hrs by microplate reader method; type: functional
Staphylococcus aureus [6] = assay: Antibacterial activity against Staphylococcus aureus NCTC 13616 assessed as reduction in bacterial growth incubated for 20 hrs by microplate reader method; type: functional
Acinetobacter baumannii [7] = assay: Antibacterial activity against Acinetobacter baumannii ATCC 17978 assessed as reduction in bacterial growth incubated for 20 hrs in presence of PMBN by microplate reader method; type: functional, organism-based
Escherichia coli = assay: Antibacterial activity against Escherichia coli NCTC 12923 assessed as reduction in bacterial growth incubated for 20 hrs in presence of PMBN by microplate reader method; type: functional, organism-based
Pseudomonas aeruginosa [8] = assay: Antibacterial activity against Pseudomonas aeruginosa NCTC 13437 assessed as reduction in bacterial growth incubated for 20 hrs in presence of PMBN by microplate reader method; type: functional, organism-based
Pseudomonas aeruginosa [9] = assay: Antibacterial activity against Pseudomonas aeruginosa PAO1 assessed as reduction in bacterial growth incubated for 20 hrs in presence of PMBN by microplate reader method; type: functional
Acinetobacter baumannii [10] = assay: Antibacterial activity against Acinetobacter baumannii AYE assessed as reduction in bacterial growth incubated for 20 hrs in presence of PMBN by microplate reader method; type: functional, organism-based

Question: For `O=C(NC[C@H]1CN(c2ccc(N3CCOCC3)c(F)c2)C(=O)O1)C1CC=CC1`, which MIC (Staphylococcus aureus [1]) is on record?
Answer: 16 µg/mL (≈ 41.1 µM)

Question: What about the MIC (Staphylococcus aureus [2]) of the same compound?
Answer: 16 µg/mL (≈ 41.1 µM)

Question: What about the MIC (Enterococcus faecalis [3]) of the same compound?
Answer: 8 µg/mL (≈ 20.5 µM)

Question: What about the MIC (Enterococcus faecium) of the same compound?
Answer: 16 µg/mL (≈ 41.1 µM)

Question: And the MIC (Staphylococcus aureus [4])?
Answer: 8 µg/mL (≈ 20.5 µM)

Question: What about the MIC (Enterococcus faecalis [5]) of the same compound?
Answer: 16 µg/mL (≈ 41.1 µM)

Question: And the MIC (Staphylococcus aureus [6])?
Answer: 16 µg/mL (≈ 41.1 µM)

Question: With `Cc1ncsc1C(=O)NC[C@H]1CN(c2ccc(N3CCOCC3)c(F)c2)C(=O)O1` as the compound, how does the MIC (Staphylococcus aureus [1]) read?
Answer: 16 µg/mL (≈ 38.1 µM)

Question: What about the Activity (Acinetobacter baumannii [7]) of the same compound?
Answer: inactive

Question: What about the MIC (Staphylococcus aureus [2]) of the same compound?
Answer: 16 µg/mL (≈ 38.1 µM)

Question: What about the MIC (Enterococcus faecalis [3]) of the same compound?
Answer: 16 µg/mL (≈ 38.1 µM)

Question: And the Activity (Escherichia coli)?
Answer: inactive

Question: And the Activity (Pseudomonas aeruginosa [8])?
Answer: inactive

Question: What about the MIC (Pseudomonas aeruginosa [9]) of the same compound?
Answer: 16 µg/mL

Question: What about the Activity (Acinetobacter baumannii [10]) of the same compound?
Answer: inactive

Question: What about the MIC (Enterococcus faecium) of the same compound?
Answer: 16 µg/mL (≈ 38.1 µM)

Question: And the MIC (Staphylococcus aureus [4])?
Answer: 32 µg/mL (≈ 76.1 µM)

Question: What about the MIC (Enterococcus faecalis [5]) of the same compound?
Answer: 32 µg/mL (≈ 76.1 µM)

Question: What about the MIC (Staphylococcus aureus [6]) of the same compound?
Answer: 16 µg/mL (≈ 38.1 µM)

Question: Which results are given for `CCCC(=O)NC[C@H]1CN(c2ccc(N3CCOCC3)c(F)c2)C(=O)O1`?
Answer: MIC (Staphylococcus aureus [1]): 8 µg/mL (≈ 21.9 µM); MIC (Staphylococcus aureus [2]): 16 µg/mL (≈ 43.8 µM); MIC (Enterococcus faecalis [3]): 8 µg/mL (≈ 21.9 µM); MIC (Enterococcus faecium): 8 µg/mL (≈ 21.9 µM); MIC (Staphylococcus aureus [4]): 8 µg/mL (≈ 21.9 µM); MIC (Enterococcus faecalis [5]): 8 µg/mL (≈ 21.9 µM); MIC (Staphylococcus aureus [6]): 8 µg/mL (≈ 21.9 µM)

Question: `Cn1cc([N+](=O)[O-])nc1C(=O)NC[C@H]1CN(c2ccc(N3CCOCC3)c(F)c2)C(=O)O1` was tested. Which MIC (Staphylococcus aureus [1]) did it give?
Answer: > 128 µg/mL

Question: And the MIC (Staphylococcus aureus [2])?
Answer: > 128 µg/mL

Question: And the MIC (Enterococcus faecalis [3])?
Answer: > 128 µg/mL

Question: What about the MIC (Enterococcus faecium) of the same compound?
Answer: > 128 µg/mL

Question: And the MIC (Staphylococcus aureus [4])?
Answer: > 128 µg/mL

Question: What about the MIC (Enterococcus faecalis [5]) of the same compound?
Answer: > 128 µg/mL

Question: And the MIC (Staphylococcus aureus [6])?
Answer: > 128 µg/mL

Question: How did the MIC (Staphylococcus aureus [1]) turn out when `O=C(NC[C@H]1CN(c2ccc(N3CCOCC3)c(F)c2)C(=O)O1)c1cc2ncccc2o1` was run?
Answer: 16 µg/mL (≈ 36.3 µM)

Question: And the MIC (Staphylococcus aureus [2])?
Answer: 16 µg/mL (≈ 36.3 µM)

Question: What about the MIC (Enterococcus faecalis [3]) of the same compound?
Answer: 8 µg/mL (≈ 18.2 µM)

Question: And the MIC (Enterococcus faecium)?
Answer: 16 µg/mL (≈ 36.3 µM)

Question: What about the MIC (Staphylococcus aureus [4]) of the same compound?
Answer: 16 µg/mL (≈ 36.3 µM)

Question: And the MIC (Enterococcus faecalis [5])?
Answer: 16 µg/mL (≈ 36.3 µM)

Question: What about the MIC (Staphylococcus aureus [6]) of the same compound?
Answer: 16 µg/mL (≈ 36.3 µM)

Question: What does the source list for `Cc1ccc(CC(=O)NC[C@H]2CN(c3ccc(N4CCOCC4)c(F)c3)C(=O)O2)cc1`?
Answer: MIC (Staphylococcus aureus [1]): 128 µg/mL (≈ 299 µM); MIC (Staphylococcus aureus [2]): 128 µg/mL (≈ 299 µM); MIC (Enterococcus faecalis [3]): 16 µg/mL (≈ 37.4 µM); MIC (Enterococcus faecium): 16 µg/mL (≈ 37.4 µM); MIC (Staphylococcus aureus [4]): 64 µg/mL (≈ 150 µM); MIC (Enterococcus faecalis [5]): 64 µg/mL (≈ 150 µM); MIC (Staphylococcus aureus [6]): 64 µg/mL (≈ 150 µM)

Question: What does the source list for `NCC(=O)NC[C@H]1CN(c2ccc(N3CCOCC3)c(F)c2)C(=O)O1`?
Answer: MIC (Staphylococcus aureus [1]): > 128 µg/mL; MIC (Staphylococcus aureus [2]): > 128 µg/mL; MIC (Enterococcus faecalis [3]): 64 µg/mL (≈ 182 µM); MIC (Enterococcus faecium): 32 µg/mL (≈ 90.8 µM); MIC (Staphylococcus aureus [4]): > 128 µg/mL; MIC (Enterococcus faecalis [5]): 64 µg/mL (≈ 182 µM); MIC (Staphylococcus aureus [6]): > 128 µg/mL

Question: What does the source list for `O=C(NC[C@H]1CN(c2ccc(N3CCOCC3)c(F)c2)C(=O)O1)c1cccs1`?
Answer: MIC (Staphylococcus aureus [1]): 16 µg/mL (≈ 39.5 µM); Activity (Acinetobacter baumannii [7]): inactive; MIC (Staphylococcus aureus [2]): 16 µg/mL (≈ 39.5 µM); MIC (Enterococcus faecalis [3]): 8 µg/mL (≈ 19.7 µM); Activity (Escherichia coli): inactive; Activity (Pseudomonas aeruginosa [8]): inactive; MIC (Pseudomonas aeruginosa [9]): 16 µg/mL; Activity (Acinetobacter baumannii [10]): inactive; MIC (Enterococcus faecium): 8 µg/mL (≈ 19.7 µM); MIC (Staphylococcus aureus [4]): 8 µg/mL (≈ 19.7 µM); MIC (Enterococcus faecalis [5]): 16 µg/mL (≈ 39.5 µM); MIC (Staphylococcus aureus [6]): 16 µg/mL (≈ 39.5 µM)

Question: Which results are given for `NCCC(=O)NC[C@H]1CN(c2ccc(N3CCOCC3)c(F)c2)C(=O)O1`?
Answer: MIC (Staphylococcus aureus [1]): > 128 µg/mL; MIC (Staphylococcus aureus [2]): > 128 µg/mL; MIC (Enterococcus faecalis [3]): 128 µg/mL (≈ 349 µM); MIC (Enterococcus faecium): 16 µg/mL (≈ 43.7 µM); MIC (Staphylococcus aureus [4]): > 128 µg/mL; MIC (Enterococcus faecalis [5]): > 128 µg/mL; MIC (Staphylococcus aureus [6]): > 128 µg/mL

Question: What does the source list for `O=C(NC[C@H]1CN(c2ccc(N3CCOCC3)c(F)c2)C(=O)O1)C1CCC1`?
Answer: MIC (Staphylococcus aureus [1]): 16 µg/mL (≈ 42.4 µM); MIC (Staphylococcus aureus [2]): 16 µg/mL (≈ 42.4 µM); MIC (Enterococcus faecalis [3]): 8 µg/mL (≈ 21.2 µM); MIC (Enterococcus faecium): 8 µg/mL (≈ 21.2 µM); MIC (Staphylococcus aureus [4]): 8 µg/mL (≈ 21.2 µM); MIC (Enterococcus faecalis [5]): 16 µg/mL (≈ 42.4 µM); MIC (Staphylococcus aureus [6]): 8 µg/mL (≈ 21.2 µM)

Question: What does the source list for `CN1CCC(C(=O)NC[C@H]2CN(c3ccc(N4CCOCC4)c(F)c3)C(=O)O2)C1` (stereo not given in full)?
Answer: MIC (Staphylococcus aureus [1]): > 128 µg/mL; MIC (Staphylococcus aureus [2]): > 128 µg/mL; MIC (Enterococcus faecalis [3]): > 128 µg/mL; MIC (Enterococcus faecium): > 128 µg/mL; MIC (Staphylococcus aureus [4]): > 128 µg/mL; MIC (Enterococcus faecalis [5]): > 128 µg/mL; MIC (Staphylococcus aureus [6]): > 128 µg/mL

Question: What does the source list for `O=C(NC[C@H]1CN(c2ccc(N3CCOCC3)c(F)c2)C(=O)O1)c1cncs1`?
Answer: MIC (Staphylococcus aureus [1]): 16 µg/mL (≈ 39.4 µM); Activity (Acinetobacter baumannii [7]): inactive; MIC (Staphylococcus aureus [2]): 16 µg/mL (≈ 39.4 µM); MIC (Enterococcus faecalis [3]): 16 µg/mL (≈ 39.4 µM); Activity (Escherichia coli): inactive; Activity (Pseudomonas aeruginosa [8]): inactive; MIC (Pseudomonas aeruginosa [9]): 16 µg/mL; Activity (Acinetobacter baumannii [10]): inactive; MIC (Enterococcus faecium): 16 µg/mL (≈ 39.4 µM); MIC (Staphylococcus aureus [4]): 16 µg/mL (≈ 39.4 µM); MIC (Enterococcus faecalis [5]): 16 µg/mL (≈ 39.4 µM); MIC (Staphylococcus aureus [6]): 16 µg/mL (≈ 39.4 µM)

Question: How did the MIC (Staphylococcus aureus [1]) turn out when `O=C(NC[C@H]1CN(c2ccc(N3CCOCC3)c(F)c2)C(=O)O1)c1cc2ccccc2[nH]1` was run?
Answer: > 128 µg/mL

Question: What about the MIC (Staphylococcus aureus [2]) of the same compound?
Answer: > 128 µg/mL

Question: What about the MIC (Enterococcus faecalis [3]) of the same compound?
Answer: > 128 µg/mL

Question: And the MIC (Enterococcus faecium)?
Answer: > 128 µg/mL

Question: And the MIC (Staphylococcus aureus [4])?
Answer: > 128 µg/mL

Question: And the MIC (Enterococcus faecalis [5])?
Answer: > 128 µg/mL

Question: And the MIC (Staphylococcus aureus [6])?
Answer: > 128 µg/mL

Question: Which results are given for `O=C(NC[C@H]1CN(c2ccc(N3CCOCC3)c(F)c2)C(=O)O1)c1cnc(Br)s1`?
Answer: MIC (Staphylococcus aureus [1]): 16 µg/mL (≈ 33 µM); Activity (Acinetobacter baumannii [7]): inactive; MIC (Staphylococcus aureus [2]): 32 µg/mL (≈ 65.9 µM); MIC (Enterococcus faecalis [3]): 16 µg/mL (≈ 33 µM); Activity (Escherichia coli): inactive; Activity (Pseudomonas aeruginosa [8]): inactive; MIC (Pseudomonas aeruginosa [9]): 16 µg/mL; Activity (Acinetobacter baumannii [10]): inactive; MIC (Enterococcus faecium): 8 µg/mL (≈ 16.5 µM); MIC (Staphylococcus aureus [4]): 32 µg/mL (≈ 65.9 µM); MIC (Enterococcus faecalis [5]): 32 µg/mL (≈ 65.9 µM); MIC (Staphylococcus aureus [6]): 16 µg/mL (≈ 33 µM)

Question: Which results are given for `CCC(=O)NC[C@H]1CN(c2ccc(N3CCOCC3)c(F)c2)C(=O)O1`?
Answer: MIC (Staphylococcus aureus [1]): 8 µg/mL (≈ 22.8 µM); MIC (Staphylococcus aureus [2]): 8 µg/mL (≈ 22.8 µM); MIC (Enterococcus faecalis [3]): 4 µg/mL (≈ 11.4 µM); MIC (Enterococcus faecium): 4 µg/mL (≈ 11.4 µM); MIC (Staphylococcus aureus [4]): 4 µg/mL (≈ 11.4 µM); MIC (Enterococcus faecalis [5]): 4 µg/mL (≈ 11.4 µM); MIC (Staphylococcus aureus [6]): 4 µg/mL (≈ 11.4 µM)
